Numbered stars: 1 amine (or outer) side, 2 acyl side, 3 side chain; on linkers, the order of the positions; unused ones are H or OH. Bridge positions count the residues as written; N and C are the ends. Square brackets hold non-standard residues; d marks the D form. Side chains are listed from the residue outwards. Peptide text beside a SMILES is read from it. * marks the point of attachment. C20 diacid = O=C(O)CCCCCCCCCCCCCCCCCCC(=O)*; γGlu = O=C(O)[C@H](CCC(=O)[*:2])N[*:1]; Hyp = O=C(O)[C@@H]1C[C@@H](O)CN1; AEEA = NCCOCCOCC(=O)O
Legend:
hAMY3 receptor = target: T1, hAMY3 receptor (Homo sapiens, UniProt O60896+P30988); test: cAMP assay for in vitro receptor activation, hAMY3-R; format: cell-based; details: cAMP assay, hAMY3 receptor; read-out: hAMY3R EC50
T1 sequence (P30988 25-474): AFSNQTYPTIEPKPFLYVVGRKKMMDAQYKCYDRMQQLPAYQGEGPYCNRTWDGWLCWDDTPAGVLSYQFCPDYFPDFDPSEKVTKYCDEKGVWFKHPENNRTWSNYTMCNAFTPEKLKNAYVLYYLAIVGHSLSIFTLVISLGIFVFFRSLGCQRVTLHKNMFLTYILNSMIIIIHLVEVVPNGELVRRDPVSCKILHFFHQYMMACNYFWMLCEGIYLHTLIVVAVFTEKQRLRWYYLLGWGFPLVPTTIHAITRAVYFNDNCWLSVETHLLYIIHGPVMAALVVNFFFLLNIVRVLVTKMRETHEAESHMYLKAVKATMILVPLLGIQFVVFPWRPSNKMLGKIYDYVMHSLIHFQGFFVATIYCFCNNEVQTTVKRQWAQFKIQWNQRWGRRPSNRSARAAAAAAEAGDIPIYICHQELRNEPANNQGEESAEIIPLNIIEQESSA
T1 sequence (O60896 24-148 partner): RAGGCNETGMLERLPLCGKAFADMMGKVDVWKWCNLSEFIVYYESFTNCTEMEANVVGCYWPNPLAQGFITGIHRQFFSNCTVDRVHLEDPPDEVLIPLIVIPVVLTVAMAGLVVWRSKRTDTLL
Outline: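 Monoclonal cell line stably overexpressing human AMY3 receptor, 2000 cells/well in DPBS with 0.05% casein and 0.5 mM IBMX. Stimulated 30 min at room temperature with graded compound doses, human amylin as positive control. cAMP accumulation read by TR-FRET after one hour.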

hAM1 receptor = hAM1 receptor (Homo sapiens, UniProt O60895+Q16602); test: cAMP assay for in vitro receptor activation, hAM1-R; format: cell-based; details: cAMP assay, hAM1 receptor; read-out: hAM1R EC50
Chain of hAM1 receptor (Q16602 23-461): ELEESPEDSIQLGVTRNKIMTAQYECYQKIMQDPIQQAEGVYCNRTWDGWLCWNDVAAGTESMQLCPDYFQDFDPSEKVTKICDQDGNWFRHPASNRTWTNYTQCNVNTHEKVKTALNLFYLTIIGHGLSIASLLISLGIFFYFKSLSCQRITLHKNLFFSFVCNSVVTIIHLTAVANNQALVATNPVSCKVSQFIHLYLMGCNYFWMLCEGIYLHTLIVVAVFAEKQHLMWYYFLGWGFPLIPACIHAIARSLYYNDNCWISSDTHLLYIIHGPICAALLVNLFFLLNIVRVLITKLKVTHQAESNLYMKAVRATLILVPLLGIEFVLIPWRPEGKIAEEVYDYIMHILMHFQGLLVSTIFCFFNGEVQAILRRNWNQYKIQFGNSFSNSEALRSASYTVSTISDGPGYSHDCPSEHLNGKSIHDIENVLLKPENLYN
Chain of hAM1 receptor (O60895 43-175 partner): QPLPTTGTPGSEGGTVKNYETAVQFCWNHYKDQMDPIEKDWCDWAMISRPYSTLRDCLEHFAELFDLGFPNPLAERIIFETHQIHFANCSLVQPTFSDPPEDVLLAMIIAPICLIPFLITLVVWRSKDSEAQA
Outline: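 Read-out is intracellular cAMP as a measure of receptor activation. Cells stably overexpressing hAM1 were subcloned to a monoclonal line, then thawed and seeded at 8000 cells/well in DPBS with 0.05% casein and the phosphodiesterase inhibitor IBMX at 0.5 mM.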

Row | SMILES | EC50 (hAMY3 receptor) [nM] | EC50 (hAM1 receptor) [nM]
1 | CC[C@H](C)[C@H](NC(=O)[C@H](CCC(N)=O)NC(=O)[C@H](Cc1c[nH]cn1)NC(=O)[C@H](C)NC(=O)[C@H](CC(C)C)NC(=O)[C@H](CCCNC(=N)N)NC(=O)[C@H](CC(N)=O)NC(=O)[C@@H](NC(=O)[C@@H](NC(=O)[C@@H]1CSSC[C@H](NC(=O)[C@H](CCCCN)NC(=O)CC[C@H](NC(=O)CCCCCCCCCCCCCCCCCCC(=O)O)C(=O)O)C(=O)N[C@@H](CC(N)=O)C(=O)N[C@@H]([C@@H](C)O)C(=O)N[C@@H](C)C(=O)N[C@@H]([C@@H](C)O)C(=O)N1)[C@@H](C)O)C(C)C)C(=O)N[C@@H](Cc1ccc(O)cc1)C(=O)N[C@@H](CCC(N)=O)C(=O)N[C@@H](Cc1ccccc1)C(=O)N[C@H](C(=O)N[C@@H](CC(=O)O)C(=O)N[C@@H](CCCCN)C(=O)N[C@@H](CC(=O)O)C(=O)N[C@@H](CCCCN)C(=O)N[C@@H](CC(=O)O)C(=O)N[C@@H](CC(N)=O)C(=O)N[C@H](C(=O)N[C@@H](C)C(=O)N1CCC[C@H]1C(=O)N1CCC[C@H]1C(=O)N[C@H](C(=O)N[C@@H](CC(N)=O)C(=O)N[C@H](C(=O)NCC(=O)N[C@@H](CO)C(=O)N[C@@H](CC(N)=O)C(=O)NCC(=O)N1C[C@H](O)C[C@H]1C(N)=O)C(C)C)[C@@H](C)O)C(C)C)[C@@H](C)O [compound 38] ({C20 diacid-γGlu}-KCNTATCTVNRLAHQIYQFTDKDKDNVAPPTNVGSNG[Hyp]-NH2; disulfide 2-7) | 0.01 | > 5000
2 | CC[C@H](C)[C@H](NC(=O)[C@H](CCC(N)=O)NC(=O)[C@H](Cc1c[nH]cn1)NC(=O)[C@H](C)NC(=O)[C@H](CC(C)C)NC(=O)[C@H](CCCNC(=N)N)NC(=O)[C@H](CCC(N)=O)NC(=O)[C@@H](NC(=O)[C@@H](NC(=O)[C@@H]1CSSC[C@H](NC(=O)[C@H](CCCNC(=N)N)NC(=O)CC[C@H](NC(=O)CCCCCCCCCCCCCCCCCCC(=O)O)C(=O)O)C(=O)N[C@@H](CC(N)=O)C(=O)N[C@@H]([C@@H](C)O)C(=O)N[C@@H](C)C(=O)N[C@@H]([C@@H](C)O)C(=O)N1)[C@@H](C)O)C(C)C)C(=O)N[C@@H](Cc1ccc(O)cc1)C(=O)N[C@@H](CCC(N)=O)C(=O)N[C@@H](Cc1ccccc1)C(=O)N[C@H](C(=O)N[C@@H](CC(=O)O)C(=O)N[C@@H](CCCCN)C(=O)N[C@@H](CC(=O)O)C(=O)N[C@@H](CCCCN)C(=O)N[C@@H](CC(=O)O)C(=O)N[C@@H](CC(N)=O)C(=O)N[C@H](C(=O)N[C@@H](C)C(=O)N1CCC[C@H]1C(=O)N1CCC[C@H]1C(=O)N[C@H](C(=O)N[C@@H](CC(N)=O)C(=O)N[C@H](C(=O)NCC(=O)N[C@@H](CO)C(=O)N[C@@H](CC(N)=O)C(=O)NCC(=O)N1C[C@H](O)C[C@H]1C(N)=O)C(C)C)[C@@H](C)O)C(C)C)[C@@H](C)O [compound 39] ({C20 diacid-γGlu}-RCNTATCTVQRLAHQIYQFTDKDKDNVAPPTNVGSNG[Hyp]-NH2; disulfide 2-7) | 0.01 | > 5000
3 | CC[C@H](C)[C@H](NC(=O)[C@H](CCC(N)=O)NC(=O)[C@H](CCC(=O)O)NC(=O)[C@H](C)NC(=O)[C@H](CC(C)C)NC(=O)[C@H](CCCNC(=N)N)NC(=O)[C@H](CCC(N)=O)NC(=O)[C@@H](NC(=O)[C@@H](NC(=O)[C@@H]1CSSC[C@H](NC(=O)[C@@H](N)CCCCN)C(=O)N[C@@H](CC(N)=O)C(=O)N[C@@H]([C@@H](C)O)C(=O)N[C@@H](C)C(=O)N[C@@H]([C@@H](C)O)C(=O)N1)[C@@H](C)O)C(C)C)C(=O)N[C@@H](Cc1ccc(O)cc1)C(=O)N[C@@H](CCC(N)=O)C(=O)N[C@@H](Cc1ccccc1)C(=O)N[C@H](C(=O)N[C@@H](CC(=O)O)C(=O)N[C@@H](CCCCN)C(=O)N[C@@H](CC(=O)O)C(=O)N[C@@H](CCCCN)C(=O)N[C@@H](CCCCNC(=O)COCCOCCNC(=O)COCCOCCNC(=O)CC[C@H](NC(=O)CCCCCCCCCCCCCCCCCCC(=O)O)C(=O)O)C(=O)N[C@@H](CC(N)=O)C(=O)N[C@H](C(=O)N[C@@H](C)C(=O)N1CCC[C@H]1C(=O)N1CCC[C@H]1C(=O)N[C@H](C(=O)N[C@@H](CC(N)=O)C(=O)N[C@H](C(=O)NCC(=O)N[C@@H](CO)C(=O)N[C@@H](CC(N)=O)C(=O)NCC(=O)N1C[C@H](O)C[C@H]1C(N)=O)C(C)C)[C@@H](C)O)C(C)C)[C@@H](C)O [compound 40] (H-KCNTATCTVQRLAEQIYQFTDKDKK([AEEA-AEEA-γGlu-C20 diacid])NVAPPTNVGSNG[Hyp]-NH2; disulfide 2-7; N-terminus assumed) | 0.01 | > 5000
4 | CC[C@H](C)[C@H](NC(=O)[C@H](CCC(N)=O)NC(=O)[C@H](CCC(=O)O)NC(=O)[C@H](C)NC(=O)[C@H](CC(C)C)NC(=O)[C@H](CCCNC(=N)N)NC(=O)[C@H](CCC(N)=O)NC(=O)[C@@H](NC(=O)[C@@H](NC(=O)[C@@H]1CSSC[C@H](NC(=O)[C@@H](N)CCCCN)C(=O)N[C@@H](CC(N)=O)C(=O)N[C@@H]([C@@H](C)O)C(=O)N[C@@H](C)C(=O)N[C@@H]([C@@H](C)O)C(=O)N1)[C@@H](C)O)C(C)C)C(=O)N[C@@H](Cc1ccc(O)cc1)C(=O)N[C@@H](CCC(N)=O)C(=O)N[C@@H](Cc1ccccc1)C(=O)N[C@H](C(=O)N[C@@H](CC(=O)O)C(=O)N[C@@H](CCCCN)C(=O)N[C@@H](CC(=O)O)C(=O)N[C@@H](CCCCN)C(=O)N[C@@H](CC(=O)O)C(=O)N[C@@H](CCCCNC(=O)COCCOCCNC(=O)COCCOCCNC(=O)CC[C@H](NC(=O)CCCCCCCCCCCCCCCCCCC(=O)O)C(=O)O)C(=O)N[C@H](C(=O)N[C@@H](C)C(=O)N1CCC[C@H]1C(=O)N1CCC[C@H]1C(=O)N[C@H](C(=O)N[C@@H](CC(N)=O)C(=O)N[C@H](C(=O)NCC(=O)N[C@@H](CO)C(=O)N[C@@H](CC(N)=O)C(=O)NCC(=O)N1C[C@H](O)C[C@H]1C(N)=O)C(C)C)[C@@H](C)O)C(C)C)[C@@H](C)O [compound 41] (H-KCNTATCTVQRLAEQIYQFTDKDKDK([AEEA-AEEA-γGlu-C20 diacid])VAPPTNVGSNG[Hyp]-NH2; disulfide 2-7; N-terminus assumed) | 0.01 | > 5000
5 | CC[C@H](C)[C@H](NC(=O)[C@H](CCC(N)=O)NC(=O)[C@H](CCC(=O)O)NC(=O)[C@H](C)NC(=O)[C@H](CC(C)C)NC(=O)[C@H](CCCNC(=N)N)NC(=O)[C@H](CCC(N)=O)NC(=O)[C@@H](NC(=O)[C@@H](NC(=O)[C@@H]1CSSC[C@H](NC(=O)[C@@H](N)CCCCN)C(=O)N[C@@H](CC(N)=O)C(=O)N[C@@H]([C@@H](C)O)C(=O)N[C@@H](C)C(=O)N[C@@H]([C@@H](C)O)C(=O)N1)[C@@H](C)O)C(C)C)C(=O)N[C@@H](Cc1ccc(O)cc1)C(=O)N[C@@H](CCC(N)=O)C(=O)N[C@@H](Cc1ccccc1)C(=O)N[C@H](C(=O)N[C@@H](CC(=O)O)C(=O)N[C@@H](CCCCN)C(=O)N[C@@H](CC(=O)O)C(=O)N[C@@H](CCCCN)C(=O)N[C@@H](CC(=O)O)C(=O)N[C@@H](CC(N)=O)C(=O)N[C@H](C(=O)N[C@@H](C)C(=O)N1CCC[C@H]1C(=O)N1CCC[C@H]1C(=O)N[C@@H](Cc1ccc(O)cc1)C(=O)N[C@@H](CC(N)=O)C(=O)N[C@@H](CCC(=O)O)C(=O)NCC(=O)N[C@@H](CO)C(=O)N[C@@H](CC(N)=O)C(=O)NCC(=O)N1C[C@H](O)C[C@H]1C(N)=O)C(C)C)[C@@H](C)O [compound 44] (H-KCNTATCTVQRLAEQIYQFTDKDKDNVAPPYNEGSNG[Hyp]-NH2; disulfide 2-7; N-terminus assumed) | 0.01 | > 5000
6 | CC[C@H](C)[C@H](NC(=O)[C@H](CCC(N)=O)NC(=O)[C@H](Cc1c[nH]cn1)NC(=O)[C@H](C)NC(=O)[C@H](CC(C)C)NC(=O)[C@H](CCCNC(=N)N)NC(=O)[C@H](CCC(N)=O)NC(=O)[C@@H](NC(=O)[C@@H](NC(=O)[C@@H]1CSSC[C@H](NC(=O)[C@H](CCCCN)NC(=O)CC[C@H](NC(=O)CCCCCCCCCCCCCCCCCCC(=O)O)C(=O)O)C(=O)N[C@@H](CC(N)=O)C(=O)N[C@@H]([C@@H](C)O)C(=O)N[C@@H](CO)C(=O)N[C@@H]([C@@H](C)O)C(=O)N1)[C@@H](C)O)C(C)C)C(=O)N[C@@H](Cc1ccc(O)cc1)C(=O)N[C@@H](CCC(N)=O)C(=O)N[C@@H](Cc1ccccc1)C(=O)N[C@H](C(=O)N[C@@H](CC(=O)O)C(=O)N[C@@H](CCCCN)C(=O)N[C@@H](CC(=O)O)C(=O)N[C@@H](CCCCN)C(=O)N[C@@H](CC(=O)O)C(=O)N[C@@H](CC(N)=O)C(=O)N[C@H](C(=O)N[C@@H](C)C(=O)N1CCC[C@H]1C(=O)N1CCC[C@H]1C(=O)N[C@H](C(=O)N[C@@H](CC(N)=O)C(=O)N[C@H](C(=O)NCC(=O)N[C@@H](CO)C(=O)N[C@@H](CC(N)=O)C(=O)NCC(=O)N1C[C@H](O)C[C@H]1C(N)=O)C(C)C)[C@@H](C)O)C(C)C)[C@@H](C)O [compound 50] ({C20 diacid-γGlu}-KCNTSTCTVQRLAHQIYQFTDKDKDNVAPPTNVGSNG[Hyp]-NH2; disulfide 2-7) | 0.011 | > 5000

Reference: patent US12139520B2 (priority 2020, dated 2024)
